Experimental data: US8916702B2 (priority 2012, dated 2014)

Each compound was assayed on HCV pseudoparticles (genotype 1a HCV E1 and E2 envelope, H77C isolate) (assay: microbe, parasite or virus in culture). Details: Hepatitis C virus, Huh-7, 48 h, HCV pseudoparticle infection of Huh7 cells, luciferase 2 days after infection; average of duplicates.
Type: cell-based
In the case of CC(C)(C)CC(=O)N[C@H]1CC[C@@H](CNC(=O)C(=O)NC[C@H](NC(=O)c2ccc(Nc3nc(NC4(c5ccc(Cl)cc5)CC4)nc(OCC(F)(F)F)n3)cc2)C(=O)O)CC1 [Compound 1469], the EC50 is reported as 2300 pM. Work on COC(=O)[C@H](CNC(=O)C(N)=O)NC(=O)c1ccc(Nc2nc(NC3(c4ccc(Cl)cc4)CC3)nc(OCC(F)(F)F)n2)cc1 [Compound 1002, (S)-methyl 3-(2-amino-2-oxoacetamido)-2-(4-(4-(1-(4-chlorophenyl)cyclopropylamino)-6-(2,2,2-trifluoroethoxy)-1,3,5-triazin-2-ylamino)benzamido)propanoate] yielded an EC50 of 2110 pM. With CCC1CCC(NC(=O)C(=O)NC[C@H](NC(=O)c2ccc(Nc3nc(NC4(c5ccc(Cl)cc5)CC4)nc(OCC(F)(F)F)n3)cc2)C(=O)OC)CC1 (stereo partly shown) [Compound 1065] the EC50 was 590 pM.

Same assay, conditions: Hepatitis C virus, Huh-7, 48 h, HCV pseudoparticles (genotype 1a, H77C) in Huh7 cells; average of duplicate; luciferase 2 days after infection
CC(C)(CNC(=O)C(=O)NC1CC1)CNC(=O)c1ccc(Nc2nc(NC3(c4ccc(Cl)cc4)CC3)nc(OCC(F)(F)F)n2)cc1 [Compound 3066] gave an EC50 of 32 pM.

Same assay, conditions: Hepatitis C virus, Huh-7, 48 h, HCV pseudoparticles, Huh7 cells, luciferase 2 days after infection; average of duplicates
With Cc1ccc(NC(=O)C(=O)NCC(C)(C)CNC(=O)c2ccc(Nc3nc(NC4(c5ccc(Cl)cc5)CC4)nc(OCc4ccc(F)cc4)n3)cc2)cc1 [Compound 3845] the EC50 was 22 pM. COC(=O)[C@H](CNC(=O)C(=O)Nc1cccc(-c2noc(C)n2)c1)NC(=O)c1ccc(Nc2nc(NC3(c4ccc(Cl)cc4)CC3)nc(OCC(F)(F)F)n2)cc1 [Compound 3730] was tested, and the EC50 was 600 pM.

Same assay, conditions: Hepatitis C virus, Huh-7, 48 h, read-out: Activity (EC50 class), HCV pseudoparticle infection of Huh7 cells, luciferase 2 days after infection; EC50 expressed as class A/B
Cc1nc(-c2ccc(NC(=O)C(=O)NCC(C)(C)CNC(=O)c3ccc(Nc4nc(NC5(c6ccc(Cl)cc6)CC5)nc(OCC(F)(F)F)n4)cc3)cc2)no1 [Compound 1563] gave an EC50 of 10 to 10000 pM. CC(C)(C)CC(=O)N[C@H]1CC[C@@H](CNC(=O)C(=O)NC[C@H](NC(=O)c2ccc(Nc3nc(NC4(c5ccc(Cl)cc5)CC4)nc(OCC(F)(F)F)n3)cc2)C(=O)O)CC1 [Compound 1469] was tested, and the EC50 was 10 to 10000 pM. In the case of O=C(NCC[C@H](NC(=O)c1ccc(Nc2nc(NC3(c4ccc(Cl)cc4)CC3)nc(OCC(F)(F)F)n2)cc1)C(=O)O)C(=O)Nc1ccc(-c2ccncc2)cc1 [Compound 1525], the EC50 is reported as 10 to 10000 pM. CCOC(=O)[C@H](CNC(=O)C(=O)NC)NC(=O)c1ccc(Nc2nc(NC3(c4ccc(Cl)cc4)CC3)nc(OCC(F)(F)F)n2)cc1 [Compound 1024, (S)-ethyl 2-(4-(4-(1-(4-chlorophenyl)cyclopropylamino)-6-(2,2,2-trifluoroethoxy)-1,3,5-triazin-2-ylamino)benzamido)-3-(2-(methylamino)-2-oxoacetamido)propanoate] showed an EC50 of 10 to 10000 pM. With CN(C)C(=O)C(=O)NC[C@H](NC(=O)c1ccc(Nc2nc(NC3(c4ccc(Cl)cc4)CC3)nc(OCC(F)(F)F)n2)cc1)C(=O)O [Compound 1007, (S)-2-(4-(4-(1-(4-chlorophenyl)cyclopropylamino)-6-(2,2,2-trifluoroethoxy)-1,3,5-triazin-2-ylamino)benzamido)-3-(2-(dimethylamino)-2-oxoacetamido)propanoic acid] the EC50 was 10 to 10000 pM. CCC1(CC)CC1CNC(=O)C(=O)NC[C@H](NC(=O)c1ccc(Nc2nc(NC3(c4ccc(Cl)cc4)CC3)nc(OCC(F)(F)F)n2)cc1)C(=O)OC (stereo partly shown) [Compound 1459] was tested, and the EC50 was 10 to 10000 pM. Compound COC(=O)[C@H](CCNC(=O)C(=O)NCC1CCCN(C(=O)OC(C)(C)C)C1)NC(=O)c1ccc(Nc2nc(NC3(c4ccc(Cl)cc4)CC3)nc(OCC(F)(F)F)n2)cc1 (stereo partly shown) [Compound 1200] has an EC50 of 10 to 10000 pM. With COC(=O)[C@H](CCNC(=O)C(=O)Nc1ccc(-c2ccccc2)c(OC)c1)NC(=O)c1ccc(Nc2nc(NC3(c4ccc(Cl)cc4)CC3)nc(OCC(F)(F)F)n2)cc1 [Compound 1518] the EC50 was 10 to 10000 pM. O=C(NC[C@H](NC(=O)c1ccc(Nc2nc(NC3(c4ccc(Cl)cc4)CC3)nc(OCC(F)(F)F)n2)cc1)C(=O)O)C(=O)NC1Cc2ccccc2C1 [Compound 1403] showed an EC50 of 10 to 10000 pM. With COC(=O)[C@H](CNC(=O)C(N)=O)NC(=O)c1ccc(Nc2nc(NC3(c4ccc(Cl)cc4)CC3)nc(OCC(F)(F)F)n2)cc1 [Compound 1002, (S)-methyl 3-(2-amino-2-oxoacetamido)-2-(4-(4-(1-(4-chlorophenyl)cyclopropylamino)-6-(2,2,2-trifluoroethoxy)-1,3,5-triazin-2-ylamino)benzamido)propanoate] the EC50 was 10 to 10000 pM. Work on O=C(NCC1CCOCC1)C(=O)NC[C@H](NC(=O)c1ccc(Nc2nc(NC3(c4ccc(Cl)cc4)CC3)nc(OCC(F)(F)F)n2)cc1)C(=O)O [Compound 1477] yielded an EC50 of 10 to 10000 pM. Work on COC(=O)C(CNC(=O)C(=O)NC1CCN(C(=O)OC(C)(C)C)CC1)NC(=O)c1ccc(Nc2nc(NC3(c4ccc(Cl)cc4)CC3)nc(OCC(F)(F)F)n2)cc1 (stereo not shown) [Compound 1049] yielded an EC50 of 10 to 10000 pM. COC(=O)[C@H](CNC(=O)C(=O)NCC1OCCc2ccccc21)NC(=O)c1ccc(Nc2nc(NC3(c4ccc(Cl)cc4)CC3)nc(OCC(F)(F)F)n2)cc1 (stereo partly shown) [Compound 1297] showed an EC50 of 10 to 10000 pM. O=C(Nc1ccc(Oc2nn[nH]n2)cc1)C(=O)NC1CCCC1CNC(=O)c1ccc(Nc2nc(NC3(c4ccc(Cl)cc4)CC3)nc(OCC(F)(F)F)n2)cc1 (stereo not shown) [Compound 1494] showed an EC50 of 10 to 10000 pM. For CCC1CCC(NC(=O)C(=O)NC[C@H](NC(=O)c2ccc(Nc3nc(NC4(c5ccc(Cl)cc5)CC4)nc(OCC(F)(F)F)n3)cc2)C(=O)OC)CC1 (stereo partly shown) [Compound 1065], the EC50 was 10 to 10000 pM. For COC(=O)[C@H](CCNC(=O)C(=O)NCc1c(F)cccc1F)NC(=O)c1ccc(Nc2nc(NC3(c4ccc(Cl)cc4)CC3)nc(OCC(F)(F)F)n2)cc1 [Compound 1158], the EC50 was 10 to 10000 pM. Work on COC(=O)[C@H](CNC(=O)C(=O)NCCc1ccccc1OC)NC(=O)c1ccc(Nc2nc(NC3(c4ccc(Cl)cc4)CC3)nc(OCC(F)(F)F)n2)cc1 [Compound 1285] yielded an EC50 of 10 to 10000 pM. COc1ccc(CNC(=O)C(=O)NCC[C@H](NC(=O)c2ccc(Nc3nc(NC4(c5ccc(Cl)cc5)CC4)nc(OCC(F)(F)F)n3)cc2)C(=O)O)cc1 [Compound 1186] showed an EC50 of 10 to 10000 pM. O=C(NCC1CC1)C(=O)NC[C@H](NC(=O)c1ccc(Nc2nc(NC3(c4ccc(Cl)cc4)CC3)nc(OCC(F)(F)F)n2)cc1)C(=O)O [Compound 1467] gave an EC50 of 10 to 10000 pM.

Same assay, conditions: Hepatitis C virus, Huh-7, 48 h, read-out: Activity (EC50 class), HCV pseudoparticles, Huh7 cells, luciferase 2 days after infection; average of duplicates
CCN(CC)CCOc1cccc(NC(=O)C(=O)NCC[C@H](NC(=O)c2ccc(Nc3nc(NC4(c5ccc(Cl)cc5)CC4)nc(OCC(F)(F)F)n3)cc2)C(=O)O)c1 [Compound 3658] showed an EC50 of 10 to 10000 pM. COC(=O)[C@H](CNC(=O)C(=O)Nc1cccc(S(=O)(=O)C(F)(F)F)c1)NC(=O)c1ccc(Nc2nc(NC3(c4ccc(Cl)cc4)CC3)nc(OCC(F)(F)F)n2)cc1 [Compound 3710] showed an EC50 of 10 to 10000 pM. CC(C)(CNC(=O)C(=O)Nc1nc2cc(F)ccc2s1)CNC(=O)c1ccc(Nc2nc(NC3(c4ccc(Cl)cc4)CC3)nc(OCC(F)(F)F)n2)cc1 [Compound 3810] was tested, and the EC50 was 10 to 10000 pM. Work on COC(=O)[C@H](CNC(=O)C(=O)Nc1ccc(Oc2ccc(Cl)cc2Cl)nc1)NC(=O)c1ccc(Nc2nc(NC3(c4ccc(Cl)cc4)CC3)nc(OCC(F)(F)F)n2)cc1 [Compound 3697] yielded an EC50 of 10 to 10000 pM. With COC(=O)[C@H](CCNC(=O)C(=O)Nc1cccc(Oc2ccccn2)c1)NC(=O)c1ccc(Nc2nc(NC3(c4ccc(Cl)cc4)CC3)nc(OCC(F)(F)F)n2)cc1 [Compound 3602] the EC50 was 10 to 10000 pM. Work on O=C(NCC[C@H](NC(=O)c1ccc(Nc2nc(NC3(c4ccc(Cl)cc4)CC3)nc(OCC(F)(F)F)n2)cc1)C(=O)O)C(=O)Nc1cccc(CCc2ccccn2)c1 [Compound 3638] yielded an EC50 of 10 to 10000 pM. For Cc1ccc(NC(=O)C(=O)NCC(C)(C)CNC(=O)c2ccc(Nc3nc(NC4(c5ccc(Cl)cc5)CC4)nc(OCc4ccc(F)cc4)n3)cc2)cc1 [Compound 3845], the EC50 was 10 to 10000 pM. COC(=O)[C@H](CNC(=O)C(=O)Nc1cccc(-c2noc(C)n2)c1)NC(=O)c1ccc(Nc2nc(NC3(c4ccc(Cl)cc4)CC3)nc(OCC(F)(F)F)n2)cc1 [Compound 3730] showed an EC50 of 10 to 10000 pM.

Same assay, conditions: Hepatitis C virus, Huh-7, read-out: Activity (EC50 class), HCV pseudoparticles (genotype 1a, H77C) in Huh7 cells; EC50 expressed as class A/B
In the case of Cn1cnnc1-c1ccc(NC(=O)C(=O)NC[C@H](NC(=O)c2ccc(Nc3nc(NC4(c5ccc(Cl)cc5)CC4)nc(OCC(F)(F)F)n3)cc2)C(=O)O)cc1 [Compound 3283], the EC50 is reported as 10 to 10000 pM. In the case of COC(=O)[C@H](CCNC(=O)C(=O)Nc1ccc(N2CCOCC2)cc1)NC(=O)c1ccc(Nc2nc(NC3(c4ccc(Cl)cc4)CC3)nc(OCC(F)(F)F)n2)cc1 [Compound 3112], the EC50 is reported as 10 to 10000 pM. For Cc1nc(-c2ccc(NC(=O)C(=O)NCCC(NC(=O)c3ccc(Nc4nc(NC5(c6ccc(Cl)cc6)CC5)nc(OCC(F)(F)F)n4)cc3)C(=O)O)cc2)cs1 (stereo not shown) [Compound 3528], the EC50 was 10 to 10000 pM. COC(=O)/C(CCNC(=O)C(=O)Nc1ccc(OCCN2CCCCC2)nc1)=N\C(=O)c1ccc(Nc2nc(NC3(c4ccc(Cl)cc4)CC3)nc(OCC(F)(F)F)n2)cc1 [Compound 3598] was tested, and the EC50 was 10 to 10000 pM. In the case of COC(=O)[C@H](CCNC(=O)C(=O)Nc1ccc(CNC(N)=O)cc1)NC(=O)c1ccc(Nc2nc(NC3(c4ccc(Cl)cc4)CC3)nc(OCC(F)(F)F)n2)cc1 [Compound 3314], the EC50 is reported as 10 to 10000 pM. For CCOCCOc1ccc(NC(=O)C(=O)NC[C@H](NC(=O)c2ccc(Nc3nc(NC4(c5ccc(Cl)cc5)CC4)nc(OCC(F)(F)F)n3)cc2)C(=O)OC)cc1 [Compound 3192], the EC50 was 10 to 10000 pM. With O=C(Nc1ccccc1)C(=O)N1CCCC(CNC(=O)c2ccc(Nc3nc(NC4(c5ccc(Cl)cc5)CC4)nc(OCC(F)(F)F)n3)cc2)C1 (stereo not shown) [Compound 3488] the EC50 was 10 to 10000 pM. CC(C)(CNC(=O)C(=O)Nc1ccc(Cl)cc1C#N)CNC(=O)c1ccc(Nc2nc(NC3(c4ccc(Cl)cc4)CC3)nc(OCC(F)(F)F)n2)cc1 [Compound 3384] gave an EC50 of 10 to 10000 pM. In the case of O=C(NC1CCCCC1)C(=O)N(CCO)CCCNC(=O)c1ccc(Nc2nc(NC3(c4ccc(Cl)cc4)CC3)nc(OCC(F)(F)F)n2)cc1 [Compound 3510], the EC50 is reported as 10 to 10000 pM. O=C(Nc1cc(F)cc(F)c1)C(=O)N1CCCC(CNC(=O)c2ccc(Nc3nc(NC4(c5ccc(Cl)cc5)CC4)nc(OCC(F)(F)F)n3)cc2)C1 (stereo not shown) [Compound 3485] gave an EC50 of 10 to 10000 pM. Compound CC(C)(CNC(=O)C(=O)NCc1cccc(F)c1)CNC(=O)c1ccc(Nc2nc(NC3(c4ccc(Cl)cc4)CC3)nc(OCC(F)(F)F)n2)cc1 [Compound 3004] has an EC50 of 10 to 10000 pM. COC(=O)[C@H](CNC(=O)C(=O)Nc1ccc(CCO)cc1)NC(=O)c1ccc(Nc2nc(NC3(c4ccc(Cl)cc4)CC3)nc(OCC(F)(F)F)n2)cc1 [Compound 3086] was tested, and the EC50 was 10 to 10000 pM. COC(=O)/C(CCNC(=O)C(=O)Nc1ccc(N2CCOCC2)nc1)=N\C(=O)c1ccc(Nc2nc(NC3(c4ccc(Cl)cc4)CC3)nc(OCC(F)(F)F)n2)cc1 [Compound 3585] gave an EC50 of 10 to 10000 pM. Work on COC(=O)[C@H](CNC(=O)C(=O)Nc1ccc(S(C)(=O)=O)cc1)NC(=O)c1ccc(Nc2nc(NC3(c4ccc(Cl)cc4)CC3)nc(OCC(F)(F)F)n2)cc1 [Compound 3105] yielded an EC50 of 10 to 10000 pM. With CC(C)(CNC(=O)C(=O)NCc1ccccc1F)CNC(=O)c1ccc(Nc2nc(NC3(c4ccc(Cl)cc4)CC3)nc(OCC(F)(F)F)n2)cc1 [Compound 3005] the EC50 was 10 to 10000 pM. For CC(C)(CNC(=O)C(=O)NC1CC1)CNC(=O)c1ccc(Nc2nc(NC3(c4ccc(Cl)cc4)CC3)nc(OCC(F)(F)F)n2)cc1 [Compound 3066], the EC50 was 10 to 10000 pM.
